Here are results for 1 compound from patent US5744451A, “N-substituted glutamic acid derivatives with interleukin-1 β converting enzyme inhibitory activity” (Warner-Lambert Company, priority 1996, dated 1998).

Residues, ends and D or L forms follow the SMILES beside them.

In data set [1] the test system is human peripheral blood mononuclear cells (PBMCs). Briefly: Viability of PBMCs by MTT assay. In kind it is cell-based. The note with it: compound at 100 μM, additional 4 hours with MTT. An excerpt:
Further evidence that compounds of Formula I are valuable inhibitors of ICE is provided by their ability to inhibit IL-1β production in human peripheral blood mononuclear cells (PBMCs) as described herein. PBMCs are isolated from heparinized blood by centrifugation over a ficoll cushion, then washed three times with phosphate-buffered saline. PBMCs are suspended in a medium containing RPMI 1640 with glutamine, penicillin, streptomycin and 2% human AB serum, then plated at 10^6 cells per well in 96-well flat bottom plates. PBMCs are stimulated overnight with 10 ng/mL of lipopolysaccharide (LPS, E. Coli strain 0111:B4; Calbiochem) in the presence or absence of a compound of Formula I. Medium is harvested and the level of mature IL-1β was determined using an ELISA kit from R & D Systems. Cells were cultured for an additional 4 hours in the presence of 3-(4,5-dimethylthiazol-2-yl)-2,5-diphenyltetrazolium bromide (MTT) to determine viability.
(In general: Tetrazolium assays rely on reduction of a dye to a coloured formazan, in cell work by metabolically active cells.)

Data set [2] concerns the target T1, ICE (interleukin-1β converting enzyme) (Homo sapiens, UniProt P29466).
T1 sequence (P29466 120-297 limits assumed): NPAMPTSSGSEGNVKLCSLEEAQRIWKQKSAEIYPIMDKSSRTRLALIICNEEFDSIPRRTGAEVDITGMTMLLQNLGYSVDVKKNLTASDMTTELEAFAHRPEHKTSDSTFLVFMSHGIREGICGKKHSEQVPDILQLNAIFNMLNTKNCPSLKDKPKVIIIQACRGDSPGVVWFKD
T1 sequence (P29466 317-404 limits assumed): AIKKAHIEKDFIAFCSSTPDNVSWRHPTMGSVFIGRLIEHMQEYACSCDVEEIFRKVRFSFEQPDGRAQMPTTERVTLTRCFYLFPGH
Briefly: ICE inhibition, fluorogenic Ac-Tyr-Val-Ala-Asp-AMC hydrolysis progress curves (Ki and kon). Type of data set: biochemical. The note with it: [I]=2 or 4 μM.
Method: The progress curves are fit to the equation F=F0 +Vf.t+(Vi -Vf) (1-exp(-kobs t))/kobs, where F0 is the initial fluorescence, Vi and Vf are initial and final reaction velocities, and kobs is the pseudo first-order rate of inhibition. Ki is calculated as Ki =SPF.[I]Vf /(Vi -Vf), where the substrate protection factor (SPF) is 1+[S]/Km =17.7. kon is calculated as SPF.kobs /[I].

In general, Ki refers to a measure of affinity in units of concentration, obtained from inhibition or displacement. One may read the kon as the second-order rate constant of association. As for `CC(=O)N[C@@H](Cc1ccc(O)cc1)C(=O)N[C@H](C(=O)N[C@@H](C)C(=O)N[C@H](C=O)CCC(=O)O)C(C)C` [Ac-Tyr-Val-Ala-Glu[CHO]] (Ac-YVAE-aldehyde), the “cell viability after treatment (MTT assay)” value in data set [1] was greater than 95%. Besides, the Ki in data set [2] (ICE 0.24 nM, 250 μM substrate Ac-Tyr-Val-Ala-Asp-AMC, corrected by SPF 17.7, read-out: Ki against ICE) is 1.8 nM. In data set [2] (kon = SPF.kobs/[I], read-out: kon against ICE), the kon was found to be 17200 M⁻¹ s⁻¹.
